SMILES strings stand for the structures.

Experimental findings from paper PMC5615050 (Scientific Reports, 2017) are described below.

The target in the assay is Bac-NA^H274Y H1N1 (Influenza A virus, UniProt P03470, H259Y). The assay can be described thus: biochemical.
Broadly, the IC50 is the concentration that inhibits the measured activity by half. Lower therefore signals inhibition by little substance. On to `CC12CCC(O)CC1CCC1C2CC(O)C2(C)C(C3=CC(=O)OC3)CCC12O` (stereo not drawn) [BPR1P0007S0], for which the concentration for half-maximal inhibition (IC50) is greater than 40 µM. With `CC12CCC(O)CC1CCC1C2CCC2(C)C(C3=CC(=O)OC3)CCC12O` (stereo not drawn) [BPR1P0008S0] the figure was greater than 40 µM; with `CC1OC(OC2CC(O)C3(CO)C4C(O)CC5(C)C(C6COC(O)C6)CCC5(O)C4CCC3(O)C2)C(O)C(O)C1O` (stereo not drawn) [BPR1P0003S0], greater than 40 µM.
